Source: ChEMBL document CHEMBL5331067, “Disubstituted pyrimidine-5-carboxamide derivatives as novel HIV-1 NNRTIs: Crystallographic overlay-based molecular design, synthesis, and biological evaluation” (Eur J Med Chem, 2023)

Legend:
[1] = tested on: Human immunodeficiency virus 1; assay: Antiviral activity against HIV-1 IIIB infected in human MT4 cells assessed as reduction in virus induced cytopathic effect incubated for 5 days by MTT assay; assay type: functional, organism-based; details: Human immunodeficiency virus 1, IIIB, MT4, 120 h
[2] = tested on: Human immunodeficiency virus 1; assay: Antiviral activity against HIV-1 RES056 infected in human MT4 cells assessed as reduction in virus induced cytopathic effect incubated for 5 days by MTT assay; assay type: functional, organism-based; details: Human immunodeficiency virus 1, RES056, MT4, 120 h
[3] = Cytotoxicity against human MT4 cells assessed as cell growth inhibition incubated for 5 days by MTT assay; assay type: toxicity, cell-based; details: time 5 day
[4] = tested on: Human immunodeficiency virus 1; assay: Antiviral activity against NNRTI-resistant HIV-1 harboring E138K mutant infected in human MT4 cells assessed as virus-induced cytopathicity incubated for 5 days by MTT assay; assay type: functional, organism-based; details: Human immunodeficiency virus 1, MT4, 120 h
[5] = Selectivity index, ratio of CC50 for cytotoxicity against human MT4 cells assessed as reduction in cell viability to EC50 for antiviral activity against HIV-1 IIIB infected in human MT4 cells assessed as reduction in virus induced cytopathic effect; assay type: toxicity, cell-based; details: read-out: Ratio CC50/EC50
[6] = tested on: Human immunodeficiency virus 1; assay: Antiviral activity against NNRTI-resistant HIV-1 harboring L100I mutant infected in human MT4 cells assessed as virus-induced cytopathicity incubated for 5 days by MTT assay; assay type: functional, organism-based; details: Human immunodeficiency virus 1, MT4, 120 h
[7] = tested on: Human immunodeficiency virus 1; assay: Antiviral activity against NNRTI-resistant HIV-1 harboring K103N mutant infected in human MT4 cells assessed as virus-induced cytopathicity incubated for 5 days by MTT assay; assay type: functional, organism-based; details: Human immunodeficiency virus 1, MT4, 120 h
[8] = tested on: Human immunodeficiency virus 1; assay: Antiviral activity against NNRTI-resistant HIV-1 harboring Y181C mutant infected in human MT4 cells assessed as virus-induced cytopathicity incubated for 5 days by MTT assay; assay type: functional, organism-based; details: Human immunodeficiency virus 1, MT4, 120 h
[9] = tested on: Human immunodeficiency virus 1; assay: Antiviral activity against NNRTI-resistant HIV-1 harboring Y188L mutant infected in human MT4 cells assessed as virus-induced cytopathicity incubated for 5 days by MTT assay; assay type: functional, organism-based; details: Human immunodeficiency virus 1, MT4, 120 h
[10] = tested on: Human immunodeficiency virus 1; assay: Antiviral activity against NNRTI-resistant HIV-1 harboring F227L/V106A double mutant infected in human MT4 cells assessed as virus-induced cytopathicity incubated for 5 days by MTT assay; assay type: functional, organism-based; details: Human immunodeficiency virus 1, MT4, 120 h
[11] = Selectivity index, ratio of CC50 for cytotoxicity against human MT4 cells assessed as reduction in cell viability to EC50 for antiviral activity against NNRTI-resistant HIV-1 harboring L100I mutant infected in human MT4 cells; assay type: toxicity, cell-based; details: read-out: Ratio CC50/EC50
[12] = Selectivity index, ratio of CC50 for cytotoxicity against human MT4 cells assessed as reduction in cell viability to EC50 for antiviral activity against NNRTI-resistant HIV-1 harboring K103N mutant infected in human MT4 cells; assay type: toxicity, cell-based; details: read-out: Ratio CC50/EC50
[13] = Selectivity index, ratio of CC50 for cytotoxicity against human MT4 cells assessed as reduction in cell viability to EC50 for antiviral activity against NNRTI-resistant HIV-1 harboring Y181C mutant infected in human MT4 cells; assay type: toxicity, cell-based; details: read-out: Ratio CC50/EC50
[14] = Selectivity index, ratio of CC50 for cytotoxicity against human MT4 cells assessed as reduction in cell viability to EC50 for antiviral activity against NNRTI-resistant HIV-1 harboring Y188L mutant infected in human MT4 cells; assay type: toxicity, cell-based; details: read-out: Ratio CC50/EC50
[15] = Selectivity index, ratio of CC50 for cytotoxicity against human MT4 cells assessed as reduction in cell viability to EC50 for antiviral activity against NNRTI-resistant HIV-1 harboring E138K mutant infected in human MT4 cells; assay type: toxicity, cell-based; details: read-out: Ratio CC50/EC50
[16] = Selectivity index, ratio of CC50 for cytotoxicity against human MT4 cells assessed as reduction in cell viability to EC50 for antiviral activity against NNRTI-resistant HIV-1 harboring F227L/V106A double mutant infected in human MT4 cells; assay type: toxicity, cell-based; details: read-out: Ratio CC50/EC50
[17] = Selectivity index, ratio of CC50 for cytotoxicity against human MT4 cells assessed as reduction in cell viability to EC50 for antiviral activity against HIV-1 RES056 infected in human MT4 cells assessed as reduction in virus induced cytopathic effect; assay type: toxicity, cell-based; details: read-out: Ratio CC50/EC50
[18] = (§1) Fold resistance, ratio of EC50 for antiviral activity against NNRTI-resistant HIV-1 harboring L100I mutant infected in human MT4 cells assessed as virus-induced cytopathicity to EC50 for antiviral activity against HIV-1 IIIB infected in human MT4 cells assessed as reduction in virus induced cytopathic effect; assay type: functional
[19] = as §1, with “K103N” for “L100I”; assay type: functional
[20] = as §1, with “Y181C” for “L100I”; assay type: functional
[21] = as §1, with “Y188L” for “L100I”; assay type: functional
[22] = as §1, with “E138K” for “L100I”; assay type: functional
[23] = as §1, with “F227L/V106A double” for “L100I”; assay type: functional
[24] = as §1, with “F227L/V106A double” for “L100I”, “RES056” for “IIIB”; assay type: functional
[25] = biological target: Human immunodeficiency virus type 1 reverse transcriptase (Human immunodeficiency virus 1, UniProt Q72547); assay: Inhibition of wild type HIV-1 reverse transcriptase assessed as reduction of biotin-dUTP incorporation into […] using ABTS as substrate incubated for 1 hrs by ELISA analysis

Cc1ccnc2c1NC(=O)c1cccnc1N2C1CC1 [NEVIRAPINE]
EC50 [1]: 151 nM
EC50 [2]: > 15000 nM
CC50 at 120 h [3]: > 15000 nM
EC50 [4]: 168 nM

Cc1cc(C#N)cc(C)c1Oc1nc(Nc2ccc(CN3CCN(S(N)(=O)=O)CC3)cc2)ncc1C(N)=O
EC50 [1]: 1550 nM
EC50 [2]: > 173000 nM
CC50 at 120 h [3]: 173000 nM
selectivity ratio [5]: 112

Cc1cc(C#N)cc(C)c1Oc1nc(Nc2ccc(CN3CCNCC3)cc2)ncc1C(N)=O
EC50 [1]: 13400 nM
EC50 [2]: > 273000 nM
CC50 at 120 h [3]: > 273000 nM
selectivity ratio [5]: > 20

Cc1cc(C#N)cc(C)c1Oc1nc(Nc2ccc(C#N)nc2)ncc1C(N)=O
EC50 [1]: 128 nM
EC50 [2]: > 27900 nM
CC50 at 120 h [3]: 27900 nM
selectivity ratio [5]: 218

Cc1cc(C#N)cc(C)c1Oc1nc(Nc2ccc(CN3CCN(S(C)(=O)=O)CC3)cc2)ncc1C(N)=O
EC50 [1]: 1770 nM
EC50 [2]: > 233000 nM
CC50 at 120 h [3]: > 233000 nM
selectivity ratio [5]: > 132

Cc1cc(C#N)cc(C)c1Oc1nc(NC2CCN(c3ccc(NS(=O)(=O)N(C)C)cc3)CC2)ncc1C(N)=O
EC50 [1]: 7 nM
EC50 [2]: 15600 nM
CC50 at 120 h [3]: 209000 nM
selectivity ratio [5]: 31700
EC50 [6]: 139 nM
EC50 [7]: 11 nM
EC50 [8]: 54 nM
EC50 [9]: 33 nM
EC50 [4]: 26 nM
EC50 [10]: 34 nM
selectivity ratio [11]: 1500
selectivity ratio [12]: 18700
selectivity ratio [13]: 3910
selectivity ratio [14]: 6350
selectivity ratio [15]: 8010
selectivity ratio [16]: 6160
selectivity ratio [17]: 13
Ratio EC50 [18]: 21.1
Ratio EC50 [19]: 1.7
Ratio EC50 [20]: 8.1
Ratio EC50 [21]: 5
Ratio EC50 [22]: 3.9
Ratio EC50 [23]: 5.1
Ratio EC50 [24]: 2359.1
IC50 [25]: 52 nM

Cc1cc(C#N)cc(C)c1Oc1nc(NC2CCN(c3ccc(NS(=O)(=O)C4CC4)cc3)CC2)ncc1C(N)=O
EC50 [1]: 8 nM
EC50 [2]: 42 nM
CC50 at 120 h [3]: 208000 nM
selectivity ratio [5]: 27200
EC50 [6]: 65 nM
EC50 [7]: 9 nM
EC50 [8]: 45 nM
EC50 [9]: 35 nM
EC50 [4]: 734 nM
EC50 [10]: 34 nM
selectivity ratio [11]: 3190
selectivity ratio [12]: 23400
selectivity ratio [13]: 4570
selectivity ratio [14]: 6000
selectivity ratio [15]: 283
selectivity ratio [16]: 6070
selectivity ratio [17]: 4920
Ratio EC50 [18]: 8.5
Ratio EC50 [19]: 1.2
Ratio EC50 [20]: 6
Ratio EC50 [21]: 4.5
Ratio EC50 [22]: 96.2
Ratio EC50 [23]: 4.5
Ratio EC50 [24]: 5.5
IC50 [25]: 38 nM

Cc1cc(C#N)cc(C)c1Oc1nc(NC2CCN(c3ccc(NS(C)(=O)=O)cc3)CC2)ncc1C(N)=O
EC50 [1]: 19 nM
EC50 [2]: 33200 nM
CC50 at 120 h [3]: > 233000 nM
selectivity ratio [5]: > 12100
EC50 [6]: 247 nM
EC50 [7]: 154 nM
EC50 [8]: 259 nM
EC50 [9]: 24 nM
EC50 [4]: 226 nM
EC50 [10]: 781 nM
selectivity ratio [11]: > 946
selectivity ratio [12]: > 1510
selectivity ratio [13]: > 901
selectivity ratio [14]: > 9940
selectivity ratio [15]: > 1040
selectivity ratio [16]: > 299
selectivity ratio [17]: > 7
Ratio EC50 [18]: 12.7
Ratio EC50 [19]: 8
Ratio EC50 [20]: 13.4
Ratio EC50 [21]: 1.2
Ratio EC50 [22]: 11.6
Ratio EC50 [23]: 40.3
Ratio EC50 [24]: 1716.7
IC50 [25]: 200 nM

Cc1cc(C#N)cc(C)c1Oc1nc(NC2CCN(Cc3ccc(B(O)O)cc3)CC2)ncc1C(N)=O
EC50 [1]: 42 nM
EC50 [2]: 6630 nM
CC50 at 120 h [3]: > 250000 nM
selectivity ratio [5]: > 5990
EC50 [6]: 133 nM
EC50 [7]: 45 nM
EC50 [8]: 159 nM
EC50 [9]: 209 nM
EC50 [4]: 165 nM
EC50 [10]: 1090 nM
selectivity ratio [11]: > 187
selectivity ratio [12]: > 5550
selectivity ratio [13]: > 1570
selectivity ratio [14]: > 1190
selectivity ratio [15]: > 1520
selectivity ratio [16]: > 229
selectivity ratio [17]: > 38
Ratio EC50 [18]: 3.2
Ratio EC50 [19]: 1.1
Ratio EC50 [20]: 3.8
Ratio EC50 [21]: 5
Ratio EC50 [22]: 4
Ratio EC50 [23]: 26.2
Ratio EC50 [24]: 159.1
IC50 [25]: 1040 nM

Cc1cc(C#N)cc(C)c1Oc1nc(NC2CCN(c3ccc(NS(N)(=O)=O)cc3)CC2)ncc1C(N)=O
EC50 [1]: 33 nM
EC50 [2]: 152000 nM
CC50 at 120 h [3]: 176000 nM
selectivity ratio [5]: 5370
EC50 [6]: 370 nM
EC50 [7]: 37 nM
EC50 [8]: 176 nM
EC50 [9]: 118 nM
EC50 [4]: 120 nM
EC50 [10]: 584 nM
selectivity ratio [11]: 474
selectivity ratio [12]: 4730
selectivity ratio [13]: 997
selectivity ratio [14]: 1480
selectivity ratio [15]: 1470
selectivity ratio [16]: 301
selectivity ratio [17]: 1
Ratio EC50 [18]: 11.3
Ratio EC50 [19]: 1.1
Ratio EC50 [20]: 5.4
Ratio EC50 [21]: 3.6
Ratio EC50 [22]: 3.7
Ratio EC50 [23]: 17.9
Ratio EC50 [24]: 4648.8
IC50 [25]: 941 nM

Cc1cc(C#N)cc(C)c1Oc1nc(Nc2ccc(C#N)cc2)nc(N)c1Br [ETRAVIRINE]
EC50 [2]: 61 nM
CC50 at 120 h [3]: > 4600 nM
EC50 [4]: 10 nM

Cc1cc(C#N)cc(C)c1Oc1nc(NC2CCN(c3ccc(N)cc3)CC2)ncc1C(N)=O
EC50 [1]: 42 nM
EC50 [2]: 4000 nM
CC50 at 120 h [3]: 183000 nM
selectivity ratio [5]: 4420
EC50 [6]: 275 nM
EC50 [7]: 45 nM
EC50 [8]: 252 nM
EC50 [9]: 255 nM
EC50 [4]: 208 nM
EC50 [10]: 1080 nM
selectivity ratio [11]: 668
selectivity ratio [12]: 4120
selectivity ratio [13]: 726
selectivity ratio [14]: 718
selectivity ratio [15]: 881
selectivity ratio [16]: 169
selectivity ratio [17]: 46
Ratio EC50 [18]: 6.6
Ratio EC50 [19]: 1.1
Ratio EC50 [20]: 6.1
Ratio EC50 [21]: 6.2
Ratio EC50 [22]: 5
Ratio EC50 [23]: 26.1
Ratio EC50 [24]: 96.4
IC50 [25]: 242 nM

O=C1Nc2ccc(Cl)cc2[C@@](C#CC2CC2)(C(F)(F)F)O1 [EFAVIRENZ]
CC50 at 120 h [3]: > 6350 nM

Cc1cc(C#N)cc(C)c1Oc1nc(NC2CCN(c3cccc(C(N)=O)c3)CC2)ncc1C(N)=O
EC50 [1]: 43900 nM
EC50 [2]: > 257000 nM
CC50 at 120 h [3]: > 257000 nM
selectivity ratio [5]: > 6

Cc1cc(C#N)cc(C)c1Oc1nc(NC2CCN(c3cccc(C#N)c3)CC2)ncc1C(N)=O
EC50 [1]: 276 nM
EC50 [2]: 48100 nM
CC50 at 120 h [3]: 111000 nM
selectivity ratio [5]: 402
